# Assay results as given in patent publication US10704079B2, “Methods for the detection of beta-lactamases in a sample” (priority 2007, dated 2020).
# Like-named read-outs stand apart in the source and are kept apart here.
# What was measured:
# E. coli (ESCCOL) strains = experiment: MIC assays of CTX, CCX, CAZ, CCZ, microbroth dilution (CLSI); assay type: cell-based; conditions: Escherichia coli
# Procedure: (§1) MIC Assays of CTX (cefotaxime), […] (cefotaxime/clavulanic acid), CAZ (ceftazidime) and CCZ (ceftazidime/clavulanic acid) were performed by microbroth dilution method according to the CLSI (Clinical and Laboratory Standards Institute) standard.
# [1] = test system: Klebsiella pneumoniae (KLEPNEP) strains; experiment: as above; assay type: cell-based
# Procedure: as §1
# E. coli strains [2] = experiment: Cefoxitin MIC assay, microbroth dilution (CLSI); assay type: cell-based
# Procedure: Cefoxitin MIC Assay were performed by microbroth dilution method according to the CLSI (Clinical and Laboratory Standards Institute) standard.
# [3] = test system: Klebsiella pneumoniae strains; experiment: Imipenem MIC assay, microbroth dilution (CLSI); assay type: cell-based; conditions: for MIC: Klebsiella pneumoniae
# Procedure: (§2) Imipenem MIC Assay was performed by microbroth dilution method according to the CLSI (Clinical and Laboratory Standards Institute) standard.
# (§3) Imipenem MIC Assay were performed by microbroth dilution method according to the CLSI (Clinical and Laboratory Standards Institute) standard.
# [4] = test system: Pseudomonas aeruginosa (PSEAER) strains; experiment: Imipenem MIC assay, microbroth dilution (CLSI); assay type: cell-based; conditions: PSEAER strain 6 of Table 16 (MBL)
# Procedure: as §3
# [5] = test system: Klebsiella oxytoca strains; experiment: Imipenem MIC assay, microbroth dilution (CLSI); assay type: cell-based
# Procedure: as §2
# E. coli strains [6] = experiment: Imipenem MIC assay, microbroth dilution (CLSI); assay type: cell-based; conditions: Escherichia coli
# Procedure: as §2
# [7] = test system: Klebsiella pneumoniae strains; experiment: Lysis testing on Phoenix panel, nitrocefin hydrolysis rate; assay type: cell-based; design: unit not given here; conditions: without vs with lysis reagent
# Procedure: (§4) Stock solutions with nitrocefin, trehalose, and/or reagents used to lyse the bacterial cells in pH6 MES buffer were prepared and dispensed into wells on the bottom part of Phoenix™ panel (BD, USA), with one stock solution in one well. Panels were then dried in an oven for approximately 30 min at approximately 70° C. The top part of Phoenix panel was then attached to the bottom part forming a panel system ready for inoculation. The concentrations of reagents after rehydration following Phoenix panel inoculation were 3 mg/ml lysozyme, 1 mM EDTA, and 1% trehalose in 0.1M pH6 MES buffer.
# (§5) Representative strains of bacteria, such as E. coli and Klebsiella pneumoniae, were each streaked on a Trypticase™ Soy Agar with 5% Sheep Blood agar plate (BD, USA) and the plates were incubated at 35° C. for 18 hours. Afterwards, colonies from pure culture on each plate were inoculated into BD Phoenix ID broth (BD, USA) and adjusted to a desired turbidity of approximately 0.5 MacFarland. The bacterial cell suspension was then poured into the ID side of the Phoenix panels that were specifically made for cell lysis testing. Once inoculated, the panel was loaded into Phoenix instrument, where nitrocefin hydrolysis rate was monitored by colorimetric signals changes every 20 minutes for 16 hours.
# E. coli strains [8] = experiment: as above; assay type: cell-based; design: unit not given here; conditions: without vs with lysis reagent
# Procedure: as §4, §5
# ESBLs = experiment: Beta-lactamase inhibition at certain concentrations; assay type: biochemical
# [9] = test system: original-spectrum beta-lactamases (OSBLs); experiment: as above; assay type: biochemical
# class A beta-lactamases = experiment: as above; assay type: biochemical
# class C beta-lactamases = experiment: as above; assay type: biochemical
# [10] = ESCCOL strain 2 of Table 20 (ESBL), read-out: MIC
# [11] = ESCCOL strain 3 of Table 20 (OSBL), read-out: MIC
# [12] = ESCCOL strain 4 of Table 20 (OSBL), read-out: MIC
# [13] = ESCCOL strain 5 of Table 20 (WT), read-out: MIC
# [14] = KLEPNEP strain 7 of Table 20 (ESBL), read-out: MIC
# [15] = KLEPNEP strain 8 of Table 20 (OSBL), read-out: MIC
# [16] = KLEPNEP strain 9 of Table 20 (OSBL), read-out: MIC
# [17] = KLEPNEP strain 10 of Table 20 (WT), read-out: MIC
smiles,measurement,setting,value
"CC(C)(O/N=C(\C(=O)N[C@@H]1C(=O)N2C(C(=O)[O-])=C(C[n+]3ccccc3)CS[C@H]12)c1csc(N)n1)C(=O)O [CAZ, ceftazidime]",MIC,E. coli (ESCCOL) strains,> 128 µg/mL
same,MIC,E. coli (ESCCOL) strains; [10],16 µg/mL
same,MIC,E. coli (ESCCOL) strains; [11],≤ 0.25 µg/mL
same,MIC,E. coli (ESCCOL) strains; [12],≤ 0.25 µg/mL
same,MIC,E. coli (ESCCOL) strains; [13],≤ 0.25 µg/mL
same,MIC,[1],> 128 µg/mL
same,MIC,[1]; [14],8 µg/mL
same,MIC,[1]; [15],≤ 0.25 µg/mL
same,MIC,[1]; [16],≤ 0.25 µg/mL
same,MIC,[1]; [17],≤ 0.25 µg/mL
"CO/N=C(\C(=O)N[C@@H]1C(=O)N2C(C(=O)O)=C(COC(C)=O)CS[C@H]12)c1csc(N)n1 [CTX, cefotaxime]",MIC,"E. coli (ESCCOL) strains; ESCCOL strain 1 of Table 20 (ESBL), read-out: MIC",32 µg/mL
same,MIC,E. coli (ESCCOL) strains; [10],> 64 µg/mL
same,MIC,E. coli (ESCCOL) strains; [11],≤ 0.25 µg/mL
same,MIC,E. coli (ESCCOL) strains; [12],≤ 0.25 µg/mL
same,MIC,E. coli (ESCCOL) strains; [13],≤ 0.25 µg/mL
same,MIC,"[1]; KLEPNEP strain 6 of Table 20 (ESBL), read-out: MIC",> 64 µg/mL
same,MIC,[1]; [14],> 64 µg/mL
same,MIC,[1]; [15],≤ 0.25 µg/mL
same,MIC,[1]; [16],≤ 0.25 µg/mL
same,MIC,[1]; [17],0.5 µg/mL
CO[C@@]1(NC(=O)Cc2cccs2)C(=O)N2C(C(=O)O)=C(COC(N)=O)CS[C@@H]21 [Cefoxitin],Cefoxitin MIC,E. coli strains [2]; E. coli strain 1 of Table 18 (WT),≤ 4 µg/mL
same,Cefoxitin MIC,"E. coli strains [2]; E. coli strain 2 of Table 18 (OSBL, C-plasmid)",> 32 µg/mL
same,Cefoxitin MIC,"E. coli strains [2]; E. coli strain 3 of Table 18 (OSBL, C-chromo)",> 32 µg/mL
same,Cefoxitin MIC,E. coli strains [2]; E. coli strain 4 of Table 18 (OSBL),32 µg/mL
same,Cefoxitin MIC,"E. coli strains [2]; E. coli strain 5 of Table 18 (ESBL, C-plasmid)",> 32 µg/mL
same,Cefoxitin MIC,"E. coli strains [2]; E. coli strain 6 of Table 18 (ESBL, C-chromo)",=32
same,Cefoxitin MIC,E. coli strains [2]; E. coli strain 7 of Table 18 (ESBL),=8
same,Cefoxitin MIC,E. coli strains [2]; E. coli strain 8 of Table 18 (C-chromo),> 32 µg/mL
same,Cefoxitin MIC,E. coli strains [2]; E. coli strain 9 of Table 18 (Carbapenemase),> 32 µg/mL
same,Cefoxitin MIC,E. coli strains [2]; E. coli strain 10 of Table 18 (C-plasmid),> 32 µg/mL
same,Cefoxitin MIC,"E. coli strains [2]; E. coli strain 11 of Table 18 (OSBL, C-plasmid)",> 32 µg/mL
C[C@@H](O)[C@H]1C(=O)N2C(C(=O)O)=C(SCCN=CN)C[C@H]12 [Imipenem],Imipenem MIC,[3]; KLEPENEP strain 5 of Table 16 (WT),≤ 2 µg/mL
same,Imipenem MIC,"[3]; KLEPNEP strain 1 of Table 14 (ESBL, MBL)",= 4
same,Imipenem MIC,"[3]; KLEPNEP strain 1 of Table 16 (ESBL, MBL)",4 µg/mL
same,Imipenem MIC,[3]; KLEPNEP strain 2 of Table 14 (WT),≤ 2 µg/mL
same,Imipenem MIC,[3]; KLEPNEP strain 2 of Table 16 (MBL),> 16 µg/mL
same,Imipenem MIC,"[3]; KLEPNEP strain 3 of Table 14 (OSBL, Carbapenemase)",> 16 µg/mL
same,Imipenem MIC,"[3]; KLEPNEP strain 3 of Table 16 (ESBL, Carbapenemase)",= 8
same,Imipenem MIC,"[3]; KLEPNEP strain 4 of Table 14 (ESBL, C-plasmid)",≤ 2 µg/mL
same,Imipenem MIC,"[3]; KLEPNEP strain 4 of Table 16 (ESBL, C-plasmid)",≤ 2 µg/mL
same,Imipenem MIC,[3]; Klebsiella pneumoniae strain 1 of Table 10 (C-plasmid),<=2 μg/ml
same,Imipenem MIC,"[3]; Klebsiella pneumoniae strain 6 of Table 10 (ESBL, C-plasmid)",<=2 μg/ml
same,Imipenem MIC,"[3]; Klebsiella pneumoniae strain 8 of Table 10 (OSBL, C-plasmid)",<=2 μg/ml
same,Imipenem MIC,"[3]; Klebsiella pneumoniae strain 11 of Table 10 (OSBL, C-plasmid)",<=2 μg/ml
same,Imipenem MIC,"[3]; Klebsiella pneumoniae strain 14 of Table 10 (ESBL, C-plasmid)",<=2 μg/ml
same,MIC,"[3]; Klebsiella pneumoniae strain 2 of Table 10 (ESBL, MBL)",4 µg/mL
same,MIC,"[3]; Klebsiella pneumoniae strain 3 of Table 10 (ESBL, C)",≤ 2 µg/mL
same,MIC,"[3]; Klebsiella pneumoniae strain 4 of Table 10 (ESBL, Carb (KPC))",8 µg/mL
same,MIC,[3]; Klebsiella pneumoniae strain 7 of Table 10 (WT),≤ 2 µg/mL
same,MIC,"[3]; Klebsiella pneumoniae strain 9 of Table 10 (OSBL, carb)",> 16 µg/mL
same,MIC,[3]; Klebsiella pneumoniae strain 10 of Table 10 (WT),≤ 2 µg/mL
same,MIC,[3]; Klebsiella pneumoniae strain 12 of Table 10 (MBL),> 16 µg/mL
same,MIC,"[3]; Klebsiella pneumoniae strain 13 of Table 10 (ESBL, MBL)",4 µg/mL
same,MIC,[3]; Klebsiella pneumoniae strain 15 of Table 10 (Carb(KPC)),8 µg/mL
same,MIC,"[3]; Klebsiella pneumoniae strain 16 of Table 10 (ESBL, Carb(KPC))",8 µg/mL
same,Imipenem MIC,[4],> 16 µg/mL
same,Imipenem MIC,[5]; Klebsiella oxytoca strain 1 of Table 12 (K1-high),≤ 2 µg/mL
same,Imipenem MIC,"[5]; Klebsiella oxytoca strain 2 of Table 12 (OSBL, K1-high)",≤ 2 µg/mL
same,Imipenem MIC,"[5]; Klebsiella oxytoca strain 3 of Table 12 (OSBL, K1-high, Carb)",> 16 µg/mL
same,Imipenem MIC,[5]; Klebsiella oxytoca strain 4 of Table 12 (WT),≤ 2 µg/mL
same,MIC,E. coli strains [6]; E. coli strain 1 of Table 8 (C-chromo),≤ 2 µg/mL
same,MIC,E. coli strains [6]; E. coli strain 3 of Table 8 (Carb (KPC)),16 µg/mL
same,MIC,"E. coli strains [6]; E. coli strain 4 of Table 8 (ESBL, C-chromo)",≤ 2 µg/mL
same,MIC,"E. coli strains [6]; E. coli strain 5 of Table 8 (IRT, C-chromo)",≤ 2 µg/mL
same,MIC,"E. coli strains [6]; E. coli strain 6 of Table 8 (OSBL, Carb)",8 µg/mL
same,MIC,E. coli strains [6]; E. coli strain 8 of Table 8 (WT),≤ 0.25 µg/mL
same,MIC,E. coli strains [6]; E. coli strain 9 of Table 8 (WT),≤ 2 µg/mL
same,MIC,"E. coli strains [6]; E. coli strain 10 of Table 8 (OSBL, C-chromo)",≤ 2 µg/mL
same,MIC,"E. coli strains [6]; E. coli strain 11 of Table 8 (ESBL, C)",≤ 2 µg/mL
"O=C(Cc1cccs1)N[C@@H]1C(=O)N2C(C(=O)O)=C(/C=C/c3ccc([N+](=O)[O-])cc3[N+](=O)[O-])CS[C@H]12 [NCF, 3-[2,4-dinitrostyryl]-7-(2-thienylacetamido]3-cephem-4-carobxylic acid]",NCF activity (maximum nitrocefin hydrolysis rate within 10 hrs),"[7]; Klebsiella pneumoniae sample 9, intracellular beta-lactamase +",1.3
same,NCF activity (maximum nitrocefin hydrolysis rate within 10 hrs),"[7]; Klebsiella pneumoniae sample 10, intracellular beta-lactamase +",3.3
same,NCF activity (maximum nitrocefin hydrolysis rate within 10 hrs),"[7]; Klebsiella pneumoniae sample 11, intracellular beta-lactamase +",3.9
same,NCF activity (maximum nitrocefin hydrolysis rate within 10 hrs),"[7]; Klebsiella pneumoniae sample 12, intracellular beta-lactamase +",2.6
same,NCF activity (maximum nitrocefin hydrolysis rate within 10 hrs),"[7]; Klebsiella pneumoniae sample 13, intracellular beta-lactamase +",6.7
same,NCF activity (maximum nitrocefin hydrolysis rate within 10 hrs),"[7]; Klebsiella pneumoniae sample 14, intracellular beta-lactamase +",7.5
same,NCF activity (maximum nitrocefin hydrolysis rate within 10 hrs),"[7]; Klebsiella pneumoniae sample 15, intracellular beta-lactamase +",9.1
same,NCF activity (maximum nitrocefin hydrolysis rate within 10 hrs),"[7]; Klebsiella pneumoniae sample 16, intracellular beta-lactamase −",1.2
same,NCF activity (maximum nitrocefin hydrolysis rate within 10 hrs),"E. coli strains [8]; E. coli sample 1, intracellular beta-lactamase +",1.9
same,NCF activity (maximum nitrocefin hydrolysis rate within 10 hrs),"E. coli strains [8]; E. coli sample 2, intracellular beta-lactamase +",2.1
same,NCF activity (maximum nitrocefin hydrolysis rate within 10 hrs),"E. coli strains [8]; E. coli sample 3, intracellular beta-lactamase +",2.3
same,NCF activity (maximum nitrocefin hydrolysis rate within 10 hrs),"E. coli strains [8]; E. coli sample 4, intracellular beta-lactamase +",1.9
same,NCF activity (maximum nitrocefin hydrolysis rate within 10 hrs),"E. coli strains [8]; E. coli sample 5, intracellular beta-lactamase +",8.2
same,NCF activity (maximum nitrocefin hydrolysis rate within 10 hrs),"E. coli strains [8]; E. coli sample 6, intracellular beta-lactamase +",7.2
same,NCF activity (maximum nitrocefin hydrolysis rate within 10 hrs),"E. coli strains [8]; E. coli sample 7, intracellular beta-lactamase +",6.8
same,NCF activity (maximum nitrocefin hydrolysis rate within 10 hrs),"E. coli strains [8]; E. coli sample 8, intracellular beta-lactamase −",1.7
O=C(O)[C@H]1/C(=C/CO)O[C@@H]2CC(=O)N21 [clavulanic acid],inhibition of ESBLs,ESBLs,inhibits
same,inhibition of OSBLs,[9],inhibits
Cc1onc(-c2ccccc2Cl)c1C(=O)N[C@@H]1C(=O)N2[C@@H]1SC(C)(C)[C@@H]2C(=O)O [cloxacillin],inhibition of class A beta-lactamases,class A beta-lactamases,inhibits
same,inhibition of class C beta-lactamases,class C beta-lactamases,inhibits
